Read-outs that look alike come from different tables or passages of the source.
Assays:
B. subtilis DSM 29870 = assay: MIC of antibiotics by broth micro dilution (CLSI M07-A9); conditions: Bacillus subtilis
S. aureus ATCC 29213 = assay: MIC of antibiotics by broth micro dilution (CLSI M07-A9), control strain; conditions: Staphylococcus aureus

## CN[C@H](CC(C)C)C(=O)N[C@H]1C(=O)N[C@@H](CC(N)=O)C(=O)N[C@H]2C(=O)N[C@H]3C(=O)N[C@H](C(=O)N[C@H](C(=O)O)c4cc(O)cc(O)c4-c4cc3ccc4O)[C@H](O)c3ccc(c(Cl)c3)Oc3cc2cc(c3O[C@@H]2O[C@H](CO)[C@@H](O)[C@H](O)[C@H]2O[C@H]2C[C@](C)(N)[C@H](O)[C@H](C)O2)Oc2ccc(cc2Cl)[C@H]1O [Vancomycin]
B. subtilis DSM 29870; DSM29870, read-out: MIC 1
  MIC: 0.25 µg/mL
B. subtilis DSM 29870; DSM29870, read-out: MIC 2
  MIC: 0.25 µg/mL
B. subtilis DSM 29870; DSM29870, read-out: MIC 3
  MIC: 0.25 µg/mL
S. aureus ATCC 29213; ATCC29213, read-out: MIC 1
  MIC: 0.5 µg/mL
S. aureus ATCC 29213; ATCC29213, read-out: MIC 2
  MIC: 1 µg/mL
S. aureus ATCC 29213; ATCC29213, read-out: MIC 3
  MIC: 1 µg/mL

Source: patent publication US11473052B2, “Bacillus subtilis subspecies” (Novozymes A/S, priority 2015, dated 2022)
